Earlier results on 1 molecule are cited in US6066339A (priority 1997, dated 2000).

The data set deals with μ-opioid. Conditions: animal experiments.

For `CN1CC[C@]23c4c5ccc(O)c4O[C@H]2[C@@H](O[C@@H]2O[C@H](C(=O)O)[C@@H](O)[C@H](O)[C@H]2O)C=C[C@H]3[C@H]1C5` [morphine-6-glucuronide], the μ-opioid agonism entry is “potent μ-opioid agonist”.
